In patent US20140081017A1, “Histone Deacetylase Inhibitors for Enhancing Activity of Antifungal Agents” (METHYLGENE INC., priority 2012, published 2014):
In brackets after ≈: the same amount, converted by molar mass. Like-named read-outs stand apart in the source and are kept apart here.

What was measured:
Candida parapsilosis = experiment: Minimal Inhibitory Concentration (MIC) assay, broth microdilution per CLSI; type: cell-based; conditions: Lodderomyces parapsilosis, read-out: Minimum Inhibitory Concentrations against Yeast Isolates, Candida parapsilosis;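 note: two read times 24 hr and 48 hr of incubation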
Description: (§1) The in vitro activities of the inventive compounds (compound(s) herein) against fungi and/or yeasts were determined with isolates Candida albicans, Candida glabrata and Candida parapsilosis. The comparator compounds included fluconazole, caspofungin and amphotericin B.
(§2) The compounds were supplied as a powder, and were dissolved in dimethylsulfoxide (DMSO) the day of assay. Stock solutions were prepared at 10 mg/mL and diluted to a starting stock concentration of 2.56 mg/mL. Amphotericin B was dissolved in DMSO to a stock concentration of 2.56 mg/mL. Fluconazole was dissolved in deionized water to a stock concentration of 2.56 mg/mL. Caspofungin was received as a stock solution of 3.2 mg/mL in DMSO and was diluted to a starting stock concentration of 2.56 mg/mL.
(§3) The test organisms and reference isolates were streaked for isolation on Sabouraud agar medium (yeasts) or potato dextrose agar (fungi). Colonies were picked by swab from the medium and resuspended in the appropriate broth containing cryoprotectant. The suspensions were aliquoted into cryogenic vials and maintained at −80° C.
(§4) Prior to testing, the yeast isolates were streaked from the frozen vials onto Sabouraud dextrose agar. The plates were incubated overnight at 35° C. The fungal isolate was grown on potato dextrose agar slants and was incubated for 7-10 days at room temperature.
(§5) Both yeast and fungal isolates were tested in RPMI medium buffered with 0.165 M MOPS (3-(N-morpholino)propanesulfonic acid). The pH of the medium was adjusted to 7.0 with 1 N NaOH. The medium was sterile filtered using a 0.2 um PES (polyethersulfone) filter and stored at 4° C. until used.
(§6) The MIC assay method followed the procedure described by the Clinical and Laboratory Standards Institute (CLSI; 1, 2, 3) and employed automated liquid handlers to conduct serial dilutions and liquid transfers. Automated liquid handlers included the Multidrop 384 (Labsystems, Helsinki, Finland), Biomek 2000 and Biomek FX (Beckman Coulter, Fullerton Calif.). The wells in columns 2-12 in standard 96-well microdilution plates (Costar 3795) were filled with 150 ul of 100% DMSO. These would become the ‘mother plates’ from which ‘daughter’ or test plates would be prepared. The compounds (300 uL at 40× the desired top concentration in the test plates) were dispensed into the appropriate well in Column 1 of the mother plates. The Biomek 2000 was used to make serial 1:1 dilutions through Column 11 in the “mother plate”. The wells of Column 12 contained no compounds and were the organism growth control wells.
(§7) The daughter plates were loaded with 185 uL per well of RPMI described above using the Multidrop 384. The daughter plates were prepared using the Biomek FX which transferred 5 μL of the compound solution from each well of a mother plate to the corresponding well of the daughter plate in a single step.
(§8) Standardized inoculum of each organism was prepared per CLSI methods. For yeast isolates, colonies were picked from the streak plate and a suspension was prepared in 0.85% saline. For the fungal isolate, 1 mL of 0.85% saline was dispensed onto the potato dextrose agar slant that had been inoculated 7-10 days previously. Using a swab, a suspension of the fungus was made. After a short time to allow the heavy particles to settle out, a small quantity of the supernatant was dispensed into 0.85% saline and the suspension adjusted to equal a 0.5 McFarland turbidity standard. Both yeast and fungal isolates were diluted 1:100 in RPMI and then transferred to compartments of sterile reservoirs divided by length (Beckman Coulter). The Biomek 2000 was used to inoculate the plates. Daughter plates were placed on the Biomek 2000 work surface reversed so that inoculation took place from low to high compound concentration. The Biomek 2000 delivered 10 μL of standardized inoculum into each well. Thus, the wells of the daughter plates ultimately contained 185 uL of RPMI, 5 uL of the compound solution, and 10 uL of inoculum. […]

Candida glabrata = experiment: as above; type: cell-based; conditions: Nakaseomyces glabratus, read-out: Minimum Inhibitory Concentrations against Yeast Isolates, Candida glabrata;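 note: two read times 24 hr and 48 hr of incubation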
Description: as §1, §2, §3, §4, §5, §6, §7, §8

Candida albicans = experiment: as above; type: cell-based; conditions: Candida albicans, read-out: Minimum Inhibitory Concentrations against Yeast Isolates, Candida albicans;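 note: two read times 24 hr and 48 hr of incubation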
Description: as §1, §2, §3, §4, §5, §6, §7, §8

C. glabrata = experiment: Checkerboard FIC assay in combination with fluconazole (MIC alone and in combination, FICI); type: cell-based, Candida glabrata; conditions: for FICI of combination resulting in fluconazole MIC of: 2 ug/mL / FICI of combination resulting in fluconazole MIC of: 4 ug/mL / FICI of combination resulting in fluconazole MIC of: 8 ug/mL: FICI calculated using a fluconazole MIC of 16 μg/mL; for FICI of combination resulting in fluconazole MIC of: 2 ug/mL (value in parenthesis) / FICI of combination resulting in fluconazole MIC of: 4 ug/mL (value in parenthesis) / FICI of combination resulting in fluconazole MIC of: 8 ug/mL (value in parenthesis): FICI using a fluconazole MIC of 128 μg/mL; for MIC: Nakaseomyces glabratus; for Multiple of compound MIC to synergize fluconazole MIC to 2 ug/mL / Multiple of compound MIC to synergize fluconazole MIC to 4 ug/mL / Multiple of compound MIC to synergize fluconazole MIC to 8 ug/mL: concentration in combination as multiple of the compound's MIC alone; for Multiple of compound MIC to synergize fluconazole MIC to 2 ug/mL: fluconazole MIC 2 ug/mL; for Multiple of compound MIC to synergize fluconazole MIC to 4 ug/mL: fluconazole MIC 4 ug/mL; for Multiple of compound MIC to synergize fluconazole MIC to 8 ug/mL: fluconazole MIC 8 ug/mL; for Concentration of Methylgene compound to synergize fluconazole MIC to 2 ug/mL / Concentration of Methylgene compound to synergize fluconazole MIC to 4 ug/mL / Concentration of Methylgene compound to synergize fluconazole MIC to 8 ug/mL: in combination with fluconazole; for Concentration of Methylgene compound to synergize fluconazole MIC to 2 ug/mL: fluconazole MIC lowered to 2 ug/mL; for Concentration of Methylgene compound to synergize fluconazole MIC to 4 ug/mL: fluconazole MIC lowered to 4 ug/mL; for Concentration of Methylgene compound to synergize fluconazole MIC to 8 ug/mL: fluconazole MIC lowered to 8 ug/mL
Description: The ability of the compounds to synergize with azoles against C. glabrata was evaluated by the checkerboard assay, a common laboratory method used to evaluate synergy, antagonism, and indifference using fractional inhibitory concentrations (FICs) and FIC indices (FICI).
The test compounds were supplied as a powder and dissolved in dimethylsulfoxide (DMSO) on the day of assay. Stock solutions were prepared at 640 ug/mL. Fluconazole was dissolved in deionized water to a stock concentration of 320 ug/mL. All test articles were in solution under these conditions.
as §3, §4, §5
FIC values were determined using a broth microdilution method (CLSI; 1, 3). To prepare the test plates, automated liquid handlers (Multidrop 384, Labsystems, Helsinki, Finland; Biomek 2000 and Biomek FX, Beckman Coulter, Fullerton Calif.) were used to conduct serial dilutions and liquid transfers.
The wells of standard 96-well microdilution plates (Costar 3795) were filled with 150 uL of DMSO in columns 2-12. Three hundred microliters of each test compound was added to each well in Column 1 of the plates. The Biomek 2000 was used to make eleven 2-fold serial dilutions in each of these “test compound mother” plates. The wells of the “fluconazole mother plates” were filled with 150 uL of sterile water in rows B-H. Row A of these plates was filled with 300 uL of the fluconazole stock solution. Serial 2-fold dilutions were then prepared from top to bottom by hand, using a multichannel pipette in rows B-G. The “daughter plates” were loaded with 180 uL of RPMI using the Multidrop 384. The Biomek FX was used to transfer 5 uL of compound solution from each well of a fluconazole mother plate to the corresponding well in all of the daughter plates in a single step. Then the Biomek FX was used to transfer 5 uL of compound solution from each well of a test compound mother plate to the corresponding well of the corresponding test compound daughter plate (already containing fluconazole at the appropriate concentrations) in a single step. Row H and Column 12 each contained serial dilutions of the test agent and fluconazole alone, respectively, for determination of the MIC.
Standardized inoculum of each organism was prepared per CLSI methods (CLSI; 1, 3). For yeast isolates, colonies were picked from the primary plate and a suspension was prepared in 0.85% saline to equal a 0.5 McFarland turbidity standard. For the fungal isolate, 1 mL of 0.85% saline was dispensed onto a potato dextrose agar slant onto which the isolate had been inoculated 7-10 days previously. Using a swab, a suspension of the fungus was made. After a short time to allow the heavy particles to settle out, a small quantity of the supernatant was dispensed into 0.85% saline and the suspension was adjusted to equal a 0.5 McFarland turbidity standard. Both yeast and fungal isolates were diluted 1:100 in RPMI and then transferred to compartments of sterile reservoirs divided by length (Beckman Coulter). The Biomek 2000 was used to inoculate the plates. […]

[1] = 24 hr reading (first value of cell 24 hr/48 hr)
[2] = 48 hr reading (second value of cell 24 hr/48 hr)
[3] = MIC of the example compound alone against C. glabrata in the checkerboard assay, approximately 48 hr, read-out: Methylgene MIC
[4] = test compound alone, C. glabrata, approx. 48 hr at 35° C., read-out: Compound MIC

Row | SMILES | MIC (Candida parapsilosis; [1]) [mg/L] | MIC (Candida parapsilosis; [2]) [mg/L] | MIC (Candida glabrata; [1]) [mg/L] | MIC (Candida glabrata; [2]) [mg/L] | MIC (Candida albicans; [1]) [mg/L] | MIC (Candida albicans; [2]) [mg/L] | FICI of combination resulting in fluconazole MIC of: 2 ug/mL (C. glabrata; C. glabrata) | FICI of combination resulting in fluconazole MIC of: 4 ug/mL (C. glabrata; C. glabrata) | FICI of combination resulting in fluconazole MIC of: 8 ug/mL (C. glabrata; C. glabrata) | FICI of combination resulting in fluconazole MIC of: 2 ug/mL (value in parenthesis) (C. glabrata; C. glabrata) | FICI of combination resulting in fluconazole MIC of: 4 ug/mL (value in parenthesis) (C. glabrata; C. glabrata) | FICI of combination resulting in fluconazole MIC of: 8 ug/mL (value in parenthesis) (C. glabrata; C. glabrata) | MIC (C. glabrata; [3]) [mg/L] | MIC (C. glabrata; [4]) [mg/L] | Multiple of compound MIC to synergize fluconazole MIC to 2 ug/mL (C. glabrata) | Multiple of compound MIC to synergize fluconazole MIC to 4 ug/mL (C. glabrata) | Multiple of compound MIC to synergize fluconazole MIC to 8 ug/mL (C. glabrata) | Concentration of Methylgene compound to synergize fluconazole MIC to 2 ug/mL (C. glabrata; C. glabrata) [mg/L] | Concentration of Methylgene compound to synergize fluconazole MIC to 4 ug/mL (C. glabrata; C. glabrata) [mg/L] | Concentration of Methylgene compound to synergize fluconazole MIC to 8 ug/mL (C. glabrata; C. glabrata) [mg/L]
1 | O=C(Cc1ccc(CCCC(F)c2ccccc2)cc1)NO (stereo not drawn) [Example 26, 2-(4-(4-fluoro-4-phenylbutyl)phenyl)-N-hydroxyacetamide] | 4 (≈ 13.3 µM) | 8 (≈ 26.5 µM) | 2 (≈ 6.64 µM) | 8 (≈ 26.5 µM) | 4 (≈ 13.3 µM) | 8 (≈ 26.5 µM) | 0.313 | 0.250 | 0.313 | 0.266 | 0.156 | 0.125 | 8 | 8 | (¼x) | (⅛x) | ( 1/16x) | 2 | 1 | 0.5
2 | CC(=O)Nc1ccccc1CCCCc1ccc(CC(=O)NO)cc1 [Example 45, 2-(4-(4-(2-acetamidophenyl)butyl)phenyl)-N-hydroxyacetamide] | > 64 | > 64 | 32 (≈ 94 µM) | > 64 | > 64 | > 64 | > 1.063 | > 0.625 | > 0.750 | > 1.016 | > 0.531 | > 0.563 | > 16 | > 16 |  |  |  | >16 | 16 | 16
3 | COCCOCCOCC(=O)Nc1cccc(CCCCc2ccc(CC(=O)NO)cc2)c1 [Example 40, N-hydroxy-2-(4-(4-(3-(2-(2-(2-methoxyethoxy)ethoxy)acetamido)phenyl)butyl)phenyl)acetamide] | > 64 | > 64 | 2 (≈ 4.36 µM) | 32 (≈ 69.8 µM) | > 64 | > 64 | 0.313 | 0.250 | 0.375 | 0.266 | 0.156 | 0.188 | 16 | 16 | (¼x) | (⅛x) | (⅛x) | 4 | 2 | 2
